The values that follow come from patent US10793580B2, “Substituted pyrazoloazepin-8-ones and their use as phosphodiesterase inhibitors” (LEO Pharma A/S, priority 2016, dated 2020).

human PDE4D catalytic domain, sequence (Q08499 380-740): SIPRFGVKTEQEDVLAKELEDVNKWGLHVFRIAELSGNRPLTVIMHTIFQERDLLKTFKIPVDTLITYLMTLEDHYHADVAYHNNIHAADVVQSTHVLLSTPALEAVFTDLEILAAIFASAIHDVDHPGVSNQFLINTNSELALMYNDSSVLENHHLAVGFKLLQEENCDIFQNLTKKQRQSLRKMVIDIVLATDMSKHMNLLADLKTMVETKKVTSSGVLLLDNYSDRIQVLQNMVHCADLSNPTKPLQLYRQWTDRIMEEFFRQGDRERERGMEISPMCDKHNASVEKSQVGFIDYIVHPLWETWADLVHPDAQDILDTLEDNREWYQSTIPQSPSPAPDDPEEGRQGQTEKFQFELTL

The target in one test is human PDE4D catalytic domain (Homo sapiens (Human), UniProt Q08499). Briefly: PDE4 Assay (TR-FRET, FAM-cAMP cleavage). Particulars: Table 16, Examples 277-296; read-out: PDE4 IC50 range. It is filed as biochemical. In outline:
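Readout is Tb-to-FAM time-resolved FRET after nanoparticle capture of AMP, the product of cleaving a cAMP/FAM-cAMP mixture by PDE4D catalytic domain (S380-L740) in the presence of titrated compound. Values are IC50 ranges in nM: concentration halving substrate cleavage relative to controls.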
(In general: TR-FRET usually uses a lanthanide donor and a delayed reading to cut background.)
As for `CCn1nc(C[C@@H](C)COC(=O)c2ccn(C)n2)c2c1C(=O)NCC1(CCOCC1)C2` [Example 278, [(2R)-3-(1-ethyl-8-oxo-spiro[6,7-dihydro-4H-pyrazolo[3,4-c]azepine-5,4′-tetrahydropyran]-3-yl)-2-methyl-propyl] 1-methylpyrazole-3-carboxylate], the IC50 (in general, the midpoint of a concentration-inhibition curve) was less than 100 nM.

The same test, now with this note: Table 17, Examples 297-316; read-out: PDE4 IC50 range.
As to `CCn1nc(CC(C)(C)COC(=O)c2cnc(C)o2)c2c1C(=O)NCC1(CCOCC1)C2` [Example 302, [3-(1-ethyl-8-oxo-spiro[6,7-dihydro-4H-pyrazolo[3,4-c]azepine-5,4′-tetrahydropyran]-3-yl)-2,2-dimethyl-propyl] 2-methyloxazole-5-carboxylate], the IC50 is less than 100 nM.

The test is the same for the next values; noted with them: human PDE4D catalytic domain (UniProt Q08499 [S380-L740]); 50% inhibition of substrate cleavage; read-out: PDE4 IC50 range.
Consider `CCn1nc(C[C@@H](C)COC(=O)c2ccc(C(N)=O)cc2)c2c1C(=O)NCC1(CCOCC1)C2` [Example 169, [(2R)-3-(1-ethyl-8-oxo-spiro[6,7-dihydro-4H-pyrazolo[3,4-c]azepine-5,4′-tetrahydropyran]-3-yl)-2-methyl-propyl] 4-carbamoylbenzoate], for which the IC50 is less than 100 nM.

As for `CCn1nc(CCCOC(=O)c2ccc(OC)c(Cl)c2)c2c1C(=O)NCC1(CCOCC1)C2` [Example 58, 3-(1-ethyl-8-oxo-spiro[6,7-dihydro-4H-pyrazolo[3,4-c]azepine-5,4′-tetrahydropyran]-3-yl)propyl 3-chloro-4-methoxy-benzoate], the IC50 was less than 100 nM.

`CCn1nc(CCCOC(=O)c2cc(OC)ccc2Cl)c2c1C(=O)NCC1(CCOCC1)C2` [Example 56, 3-(1-ethyl-8-oxo-spiro[6,7-dihydro-4H-pyrazolo[3,4-c]azepine-5,4′-tetrahydropyran]-3-yl)propyl 2-chloro-5-methoxy-benzoate]: the IC50 is less than 100 nM.

`CCn1nc(CCCOC(=O)c2ccc(C#N)c(F)c2)c2c1C(=O)NCC1(CCOCC1)C2` [Example 32, 3-(1-ethyl-8-oxo-spiro[6,7-dihydro-4H-pyrazolo[3,4-c]azepine-5,4′-tetrahydropyran]-3-yl)propyl 4-cyano-3-fluoro-benzoate]: the IC50 is less than 100 nM.

For `CCn1nc(CCCOC(=O)c2cc(Cl)ccc2OC)c2c1C(=O)NCC1(CCOCC1)C2` [Example 60, 3-(1-ethyl-8-oxo-spiro[6,7-dihydro-4H-pyrazolo[3,4-c]azepine-5,4′-tetrahydropyran]-3-yl)propyl 5-chloro-2-methoxy-benzoate], the IC50 was less than 100 nM.

In the case of `CCn1nc(CC(C)(C)COC(=O)c2ccc(OC)cc2)c2c1C(=O)NCC1(CCOCC1)C2` [Example 197, [3-(1-ethyl-8-oxo-spiro[6,7-dihydro-4H-pyrazolo[3,4-c]azepine-5,4′-tetrahydropyran]-3-yl)-2,2-dimethyl-propyl] 4-methoxybenzoate], the IC50 was less than 100 nM.

Take `CCC(CC)C(=O)OCCCc1nn(CC)c2c1CC1(CCOCC1)CNC2=O` [Example 6, 3-(1-ethyl-8-oxo-spiro[6,7-dihydro-4H-pyrazolo[3,4-c]azepine-5,4′-tetrahydropyran]-3-yl)propyl 2-ethylbutanoate]: the IC50 is less than 100 nM.

On to `CCn1nc(CC(C)(C)COC(=O)c2ccc(C(=O)N3CCOCC3)cc2)c2c1C(=O)NCC1(CCOCC1)C2` [Example 223, [3-(1-ethyl-8-oxo-spiro[6,7-dihydro-4H-pyrazolo[3,4-c]azepine-5,4′-tetrahydropyran]-3-yl)-2,2-dimethyl-propyl] 4-(morpholine-4-carbonyl)benzoate], for which the IC50 was less than 100 nM.

As for `CCn1nc(CCCOC(=O)c2cc(F)ccc2C(F)(F)F)c2c1C(=O)NCC1(CCOCC1)C2` [Example 74, 3-(1-ethyl-8-oxo-spiro[6,7-dihydro-4H-pyrazolo[3,4-c]azepine-5,4′-tetrahydro-pyran]-3-yl)propyl 5-fluoro-2-(trifluoromethyl)benzoate], the IC50 was less than 100 nM.

Regarding `CCn1nc(CC(C)(C)COC(=O)c2ccc(S(=O)(=O)C(C)C)cc2)c2c1C(=O)NCC1(CCOCC1)C2` [Example 207, [3-(1-ethyl-8-oxo-spiro[6,7-dihydro-4H-pyrazolo[3,4-c]azepine-5,4′-tetrahydropyran]-3-yl)-2,2-dimethyl-propyl] 4-isopropylsulfonylbenzoate], the IC50 was less than 100 nM.

Turning to `CCn1nc(CCCOC(=O)c2ccc(F)c(OC)c2)c2c1C(=O)NCC1(CCOCC1)C2` [Example 36, 3-(1-ethyl-8-oxo-spiro[6,7-dihydro-4H-pyrazolo[3,4-c]azepine-5,4′-tetrahydropyran]-3-yl)propyl 4-fluoro-3-methoxy-benzoate], the half-maximal inhibitory concentration (IC50) is less than 100 nM.

Consider `CCn1nc(C[C@@H](C)COC(=O)c2cccc(C(=O)N3CCOCC3)c2)c2c1C(=O)NCC1(CCOCC1)C2` [Example 183, [(2R)-3-(1-ethyl-8-oxo-spiro[6,7-dihydro-4H-pyrazolo[3,4-c]azepine-5,4′-tetrahydropyran]-3-yl)-2-methyl-propyl] 3-(morpholine-4-carbonyl)benzoate], for which the IC50 is less than 100 nM.

As to `CCn1nc(CCCOC(=O)C2CCN(C(=O)N(C)C)CC2)c2c1C(=O)NCC1(CCOCC1)C2` [Example 264, 3-(1-ethyl-8-oxo-spiro[6,7-dihydro-4H-pyrazolo[3,4-c]azepine-5,4′-tetrahydro-pyran]-3-yl)propyl 1-(dimethyl-carbamoyl)piperidine-4-carboxylate], the IC50 is less than 100 nM.

In the case of `CCn1nc(CC(C)(C)COC(=O)c2ccc(C(=O)N3CCN(C(C)=O)CC3)cc2)c2c1C(=O)NCC1(CCOCC1)C2` [Example 225, [3-(1-ethyl-8-oxo-spiro[6,7-dihydro-4H-pyrazolo[3,4-c]azepine-5,4'-tetrahydropyran]-3-yl)-2,2-dimethyl-propyl] 4-(4-acetylpiperazine-1-carbonyl)benzoate], the IC50 is less than 100 nM.

Turning to `CCn1nc(CCCOC(=O)c2cccc(C#N)c2)c2c1C(=O)NCC1(CCOCC1)C2` [Example 11, 3-(1-ethyl-8-oxo-spiro[6,7-dihydro-4H-pyrazolo[3,4-c]azepine-5,4′-tetrahydropyran]-3-yl) propyl 3-cyanobenzoate], the concentration for half-maximal inhibition (IC50) is less than 100 nM.

Consider `CCn1nc(CCCOC(=O)C2CN(C(C)=O)C2)c2c1C(=O)NCC1(CCOCC1)C2` [Example 252, 3-(1-ethyl-8-oxo-spiro[6,7-dihydro-4H-pyrazolo[3,4-c]azepine-5,4′-tetrahydropyran]-3-yl)propyl 1-acetylazetidine-3-carboxylate], for which the IC50 was 100 to 500 nM.

For `CCn1nc(CCCOC(=O)c2ccc(S(=O)(=O)N3CCN(C(C)=O)CC3)cc2)c2c1C(=O)NCC1(CCOCC1)C2` [Example 102, 3-(1-ethyl-8-oxo-spiro[6,7-dihydro-4H-pyrazolo[3,4-c]azepine-5,4′-tetrahydropyran]-3-yl)propyl 4-(4-acetylpiperazin-1-yl)sulfonylbenzoate], the IC50 was less than 100 nM.

For the compound `CCn1nc(CCCOC(=O)c2ccc(S(=O)(=O)NC)cc2)c2c1C(=O)NCC1(CCOCC1)C2` [Example 1, 3-(1-Ethyl-8-oxo-spiro[6,7-dihydro-4H-pyrazolo[3,4-c]azepine-5,4′-tetrahydropyran]-3-yl)propyl 4-(methylsulfamoyl)benzoate], the IC50 was less than 100 nM.

Regarding `CCn1nc(C[C@@H](C)COC(=O)c2ccc(S(=O)(=O)NC)cc2)c2c1C(=O)NCC1(CCOCC1)C2` [Example 158, [(2R)-3-(1-ethyl-8-oxo-spiro[6,7-dihydro-4H-pyrazolo[3,4-c]azepine-5,4′-tetrahydropyran]-3-yl)-2-methyl-propyl] 4-(methylsulfamoyl)benzoate], the IC50 is less than 100 nM.

Regarding `CCn1nc(CCCOC(=O)c2cc(Cl)ccc2F)c2c1C(=O)NCC1(CCOCC1)C2` [Example 51, 3-(1-ethyl-8-oxo-spiro[6,7-dihydro-4H-pyrazolo[3,4-c]azepine-5,4′-tetrahydropyran]-3-yl)propyl 5-chloro-2-fluoro-benzoate], the IC50 is less than 100 nM.

`CCn1nc(CCCOC(=O)c2cccc(F)c2F)c2c1C(=O)NCC1(CCOCC1)C2` [Example 24, 3-(1-ethyl-8-oxo-spiro[6,7-dihydro-4H-pyrazolo[3,4-c]azepine-5,4′-tetrahydropyran]-3-yl)propyl 2,3-difluorobenzoate]: the IC50 is less than 100 nM.

On to `CCn1nc(CCCCOC(=O)C2CCOCC2)c2c1C(=O)NCC1(CCOCC1)C2` [Example 270, 4-(1-ethyl-8-oxo-spiro[6,7-dihydro-4H-pyrazolo[3,4-c]azepine-5,4′-tetrahydropyran]-3-yl)butyl tetrahydropyran-4-carboxylate], for which the IC50 was less than 100 nM.

As for `CCn1nc(CCCOC(=O)c2cccc(OC)c2)c2c1C(=O)NCC1(CCOCC1)C2` [Example 17, 3-(1-ethyl-8-oxo-spiro[6,7-dihydro-4H-pyrazolo[3,4-c]azepine-5,4′-tetrahydropyran]-3-yl)propyl 3-methoxybenzoate], the IC50 was less than 100 nM.

Take `CCn1nc(CCCOC(=O)c2ccc(C(=O)N3CCN(C)CC3)cc2)c2c1C(=O)NCC1(CCOCC1)C2` [Example 110, 3-(1-ethyl-8-oxo-spiro[6,7-dihydro-4H-pyrazolo[3,4-c]azepine-5,4′-tetrahydropyran]-3-yl)propyl 4-(4-methylpiperazine-1-carbonyl)benzoate]: the IC50 was less than 100 nM.

As for `CCn1nc(CCCOC(=O)c2cccc(S(N)(=O)=O)c2)c2c1C(=O)NCC1(CCOCC1)C2` [Example 66, 3-(1-ethyl-8-oxo-spiro[6,7-dihydro-4H-pyrazolo[3,4-c]azepine-5,4′-tetrahydropyran]-3-yl)propyl 3-sulfamoylbenzoate], the IC50 is less than 100 nM.

As to `CCn1nc(C[C@@H](C)COC(=O)[C@H]2C[C@@H](O)C2)c2c1C(=O)NCC1(CCOCC1)C2` [Example 138, [(2R)-3-(1-ethyl-8-oxo-spiro[6,7-dihydro-4H-pyrazolo[3,4-c]azepine-5,4′-tetrahydropyran]-3-yl)-2-methyl-propyl] 3-hydroxy-cyclobutanecarboxylate], the IC50 is less than 100 nM.
